Measurements as given in patent publication US5631382A, “Fulgimide compound” (Tokuyama Corporation, priority 1994, dated 1997).

How the values were obtained:
Assay type in all cases: physicochemical
[1] = Initial color of polymer plate (visual observation, YI by color-difference meter); conditions: for Initial color, visually observed: before irradiation; for Initial color, YI: color-difference meter SM-4
Description: (§1) 0.04 Parts of fulgimide compounds shown in Table 3, 70 parts of tetraethyleneglycol dimethacrylate, 15 parts of triethyleneglycol dimethacrylate, 10 parts of glycidyl methacrylate, 5 parts of 2-hydroethylmethacrylate and 1 part of perbutyl ND as a polymerization catalyst, were sufficiently mixed together until they were completely dissolved. The mixture solution was poured into a mold constituted by a glass plate and a gasket of an ethylene/vinyl acetate copolymer, and its temperature was elevated in an air oven from 35° C. to 90° C. over a period of 20 hours to effect the polymerization. After the polymerization, the polymer was taken out from the glass mold.
(§2) The obtained polymer plate was irradiated with xenon light by using a Xenon Long-Life Fade Meter FAL-25AX-HC (output: 2.5 KW, source of light: xenon long-life arc lamp) manufactured by Suga Shikenki Co., in order to measure a maximum absorption wavelength in a state of developing color. The initial color tone was observed by eyes, and YI of the samples was measured by using a color-difference meter (Model SM-4) manufactured by Suga Shikenki Co. The wear life (T 1/2) was also measured in compliance with JIS L0843 and JIS B7754. T 1/2 is defined to be the time until the color density decreases down to one-half the initial value when the polymer plate is irradiated with light by using the fade meter.
(§3) For the purpose of comparison, the fulgimide compounds represented by the following formulas (A) to (I) were also used to prepare polymer plates to measure their properties in the same procedure as described above. [drawing 113]

[2] = Wear life (T 1/2) of polymer plate in xenon fade meter, JIS L0843 and JIS B7754; conditions: time until color density decreases to one-half the initial value
Description: as §1, §2, §3

[3] = Developed color of polymer plate under xenon light (color density, maximum absorption wavelength); conditions: for Color density: 0.04 parts in polymer plate; for λ max: state of developing color, polymer plate
Description: as §1, §2, §3

## CCC1=C2C(=O)N(S(=O)(=O)O)C(=O)C2C2(c3c(OC)cc(OC)cc31)C1CC3CC(C1)CC2C3 (centres unmarked) [Compound 27]
[1]
  Initial color, visually observed: pale yellow
  Initial color, YI: 4.68
[2]
  T1/2: 100 h
[3]
  Color density: 0.68
  λ max: 568 nm

## CC1=C2C(=O)N(C#N)C(=O)C2C2(c3sccc31)C1CC3CC(C1)CC2C3 (centres unmarked) [Compound 28]
[1]
  Initial color, visually observed: colorless
  Initial color, YI: 2.06
[2]
  T1/2: 270 h
[3]
  Color density: 0.56
  λ max: 604 nm

## N#CN1C(=O)C2=C(C3CC3)c3ccoc3C3(C4CC5CC(C4)CC3C5)C2C1=O (centres unmarked) [Compound 29]
[1]
  Initial color, visually observed: colorless
  Initial color, YI: 2.01
[2]
  T1/2: 385 h
[3]
  Color density: 0.98
  λ max: 600 nm

## COc1cc(OC)c2c(c1)C(C)=C1C(=O)N(C#N)C(=O)C1C21C2CC3CC(C2)CC1C3 (centres unmarked) [Compound 30]
[1]
  Initial color, visually observed: colorless
  Initial color, YI: 2.21
[2]
  T1/2: 210 h
[3]
  Color density: 0.73
  λ max: 590 nm

## CC1=C2C(=O)N(C#N)C(=O)C2C2(c3occc31)C1CC3CC(C1)CC2C3 (centres unmarked) [Compound 31]
[1]
  Initial color, visually observed: colorless
  Initial color, YI: 2.00
[2]
  T1/2: 265 h
[3]
  Color density: 0.65
  λ max: 580 nm

## CC(=O)N1C(=O)C2=C(C)c3ccsc3C3(C4CC5CC(C4)CC3C5)C2C1=O (centres unmarked) [Compound 32]
[1]
  Initial color, visually observed: colorless
  Initial color, YI: 2.11
[2]
  T1/2: 105 h
[3]
  Color density: 0.70
  λ max: 550 nm

## CC1=C2C(=O)N(C(=O)c3ccccc3)C(=O)C2C2(c3occc31)C1CC3CC(C1)CC2C3 (centres unmarked) [Compound 33]
[1]
  Initial color, visually observed: colorless
  Initial color, YI: 2.16
[2]
  T1/2: 100 h
[3]
  Color density: 0.58
  λ max: 550 nm

## CC1=C2C(=O)N(CC#N)C(=O)C2C2(c3sc(-c4ccccc4)cc31)C1CC3CC(C1)CC2C3 (centres unmarked) [D, reference compound]
[1]
  Initial color, visually observed: yellow
  Initial color, YI: 10.75
[2]
  T1/2: 90 h
[3]
  Color density: 0.82
  λ max: 570 nm

## COc1ccc(-c2cc3c(s2)C2(C4CC5CC(C4)CC2C5)C2C(=O)N(CC#N)C(=O)C2=C3C)cc1 (centres unmarked) [E, reference compound]
[1]
  Initial color, visually observed: yellow
  Initial color, YI: 18.21
[2]
  T1/2: 90 h
[3]
  Color density: 0.90
  λ max: 580 nm

## CCN1C(=O)C2=C(C)c3cc(-c4ccc(OC)cc4)n(-c4ccccc4)c3C3(C4CC5CC(C4)CC3C5)C2C1=O (centres unmarked) [F, reference compound]
[1]
  Initial color, visually observed: yellow
  Initial color, YI: 19.23
[2]
  T1/2: 80 h
[3]
  Color density: 0.75
  λ max: 600 nm

## CCN1C(=O)C2=C(C)c3cc(-c4ccc(OC)cc4)n(C)c3C3(C4CC5CC(C4)CC3C5)C2C1=O (centres unmarked) [G, reference compound]
[1]
  Initial color, visually observed: yellow
  Initial color, YI: 19.56
[2]
  T1/2: 85 h
[3]
  Color density: 0.88
  λ max: 610 nm

## CCOC(=O)CN1C(=O)C2=C(C)c3cc(-c4ccc(OC)cc4)n(C)c3C3(C4CC5CC(C4)CC3C5)C2C1=O (centres unmarked) [H, reference compound]
[1]
  Initial color, visually observed: yellow
  Initial color, YI: 19.52
[2]
  T1/2: 80 h
[3]
  Color density: 0.78
  λ max: 620 nm

## COc1ccc(-c2cc3c(n2C)C2(C4CC5CC(C4)CC2C5)C2C(=O)N(CC#N)C(=O)C2=C3C)cc1 (centres unmarked) [I, reference compound]
[1]
  Initial color, visually observed: yellow
  Initial color, YI: 18.89
[2]
  T1/2: 80 h
[3]
  Color density: 0.73
  λ max: 630 nm
